Assay results taken from patent US4939134A, “26-aminocholesterol and derivatives and analogs thereof in the regulation of cholesterol accumulation in body tissue” (New York University, priority 1988, dated 1990).
Entries after “also recorded” stand apart in the source; their conditions may differ.

What was measured:
[1] = system: LDLR (+) Human Fibroblasts; assay: Total 125I-LDL binding to human fibroblasts; assay type: cell-based; conditions: for 125I-LDL BINDING: 10 ug/ml 125I-LDL, 4 h, 37° C., n = 3, untreated 49.7; for LDL-binding (in words): human fibroblasts / tissue cells
Method: Normal LDLR(+) human fibroblasts (GM3440) were obtained from the National Institute of General Medical Sciences Human Genetic Cell Repository. Stock fibroblast monolayers were maintained in T-75 disposable Nunc flasks, in a medium comprising 10 ml of MEM (Eagle's Minimum Essential Medium with Earl's salts, pH 7.4) supplemented with 10% (v/v) fetal bovine serum (FBS), 2% (v/v) non-essential and essential amino acids, 1% (v/v) MEM vitamins, 1% L-glutamine (292 ug/ml), 1% penicillin (100 U/ml)-streptomycin (100 ug/ml). The fibroblast stock was maintained at 37° C. in a humidified atmosphere of 5% CO2 and 95% air.
For experiments using fibroblasts, confluent stock cultures (5-18 passages) were washed once with Dulbecco's PBS (phosphate buffered saline) prior to the addition of 3 ml aliquots of experimental MEM containing 25% (v/v) D2 O, 9% (v/v) dilapidated FBS, 1% FBS (v/v), 1% MEM vitamins and L-glutamine, and 2% of essential and non-essential amino acids and 20 mM HEPES buffer.
The fibroblast and hepatoblastoma cells were cultured in media containing 25% D2 O and 1% FBS in order to determine de novo cholesterol synthesis under conditions that permit receptor mediated cholesterol transport, according to the method of Easterman & Javitt et al., J. Lipid Res., 26: 950-954 (1985). Dish cultures of each cell type were prepared, and 26-aminocholesterol, dissolved in N,N-dimethylformamide (DMF, 9 ul per dish, 0.3% v/v) was added to each culture. The cells were then grown to confluence (96 hours, day 5). […] Duplicate or triplicate dishes containing 9 ul of DMF, but without 26-aminocholesterol, were used as controls.
LDL (d, 1.019-1.03) was isolated by sequential preparative ultracentrifugation of normal human plasma, using solid KBr for density adjustment, according to the methods of Havel et al., J. Clin. Invest., 34: 1345-1353 (1955) and Radding & Steinberg, J Clin. Invest., 39: 1560-1569 (1960). The isolated LDL was then iodinated with ^125 INa by the monochloride procedure of McFarlane, Nature, 102: 53 (1958), as modified for lipoproteins according to Bilheimer et al., Biochim. Biophys. Acta. 260: 212-221 (1972). To remove free iodine, the LDL preparation was subjected to column chromatography on a Sephadex G-25M disposable mini-column (Pharmacia PD-10) and was dialized against 0.15 M NaCl and […] EDTA, pH 7.4. The specific activity of all LDL preparations ranged between 160-300 cpm/mg of LDL proteins. ^125 I-LDL was stored at 4° C. and was sterilized by filtration through a 0.45 um membrane just prior to incubation with the treated fibroblast and hepatoblastoma cell cultures and control cultures.
For binding studies, a fixed concentration of 10 ug/ml of ^125 I-LDL was added directly to the monolayers of the confluent culture medium (at or near the 96th hour) and incubation was continued for a further 4 hours at 37° C. for fibroblasts and 4° C. for HepG2 cells. After this incubation, the culture dishes were placed on ice, the medium was removed, and the cell monolayers were washed as described in Goldstein & Brown, J. Biol. Chem., 249: 5153-5162 (1974). The monolayers were then scraped off the dishes with a teflon policeman and were solubilized with 1 ml of 0.1 N NaOH.
Cell-associated radioactivity was measured in a Packard auto gamma scintillation spectrometer Model 5160, and cell protein was measured by the method of Lowry et al., J. Biol. Chem., 193: 265-275 (1951), using bovine serum albumin as a standard. Total ^125 I-LDL binding was expressed as the mass of ^125 I-LDL (mg) per mg of cell protein.
For purposes of comparison, ^125 I-LDL and cholesterol assays were also conducted in cultures prepared according to the above methods, but incubated with 26-hydroxycholesterol in one set of experiments and with the sterol 26-thiacholesterol in another set of experiments. These sterols were obtained according to known methods, similar to those described above for 26-aminocholesterol.

[2] = system: fibroblast and hepatoblastoma cells; assay type: cell-based, human
Method: Lipid Res., 26: 950-954 (1985). Dish cultures of each cell type were prepared, and 26-aminocholesterol, dissolved in N,N-dimethylformamide (DMF, 9 ul per dish, 0.3% v/v) was added to each culture. The cells were then grown to confluence (96 hours, day 5). […] Duplicate or triplicate dishes containing 9 ul of DMF, but without 26-aminocholesterol, were used as controls.

[3] = system: HMG CoA reductase; assay: HMG CoA reductase activity in fibroblasts; assay type: cell-based
[4] = system: DNA synthesis and cell growth; conditions: mechanism appears independent of HMG CoA reductase activity; cited from earlier work

SMILES	125I-LDL BINDING ([1]; 0.625 uM, human fibroblasts)	LDL-binding (in words) [1]	125I-LDL BINDING ([1]; 5.0 uM, human fibroblasts)	125I-LDL BINDING ([1]; 10.0 uM, human fibroblasts)	125I-LDL BINDING ([1]; 20.0 uM, human fibroblasts)	125I-LDL BINDING ([1]; 0.156 uM, human fibroblasts)	125I-LDL BINDING ([1]; 0.312 uM, human fibroblasts)	potency in comparison (in words) ([1]; human fibroblasts, versus 26-hydroxycholesterol)	effect on cell growth [2]	HMG CoA reductase activity [3]	DNA synthesis and cell growth [4]
CC(CO)CCC[C@@H](C)[C@H]1CC[C@H]2[C@@H]3CC=C4C[C@@H](O)CC[C@]4(C)[C@H]3CC[C@]12C (some centres unmarked) [26-OH, 26-hydroxycholesterol]	22.0 +/- 2.4 ug LDL protein per mg cell pro	significant reductions									
CC(CS)CCC[C@@H](C)[C@H]1CC[C@H]2[C@@H]3CC=C4C[C@@H](O)CC[C@]4(C)[C@H]3CC[C@]12C (some centres unmarked) [26-SH]		no impact	37.9 +/- 1.8 ug LDL protein per mg cell pro	25.7 +/- 0.7 ug LDL protein per mg cell pro	35.7 +/- 4.8 ug LDL protein per mg cell pro						
C[C@@H](CN)CCC[C@@H](C)[C@H]1CC[C@H]2[C@@H]3CC=C4C[C@@H](O)CC[C@]4(C)[C@H]3CC[C@]12C [26-NH2, 26-aminocholesterol]	13.3 +/- 1.6 ug LDL protein per mg cell pro	significant reductions; also recorded: downregulates LDL binding; also recorded: selectively inhibits and reduces LDL binding				29.6 +/- 1.1 ug LDL protein per mg cell pro	22.6 +/- 5.4 ug LDL protein per mg cell pro	significantly more potent	No effect on cell growth was observed	inhibit HMG CoA reductase activity	downregulate DNA synthesis and cell growth
